Converted amounts (≈) assume the structure as drawn. Where two headings read alike, the source gives them in different places.
Columns and labels:
[1] = biological target: T1, 1b (BK) NS5BΔ21 (Hepatitis C virus genotype 1b, UniProt P26663); assay: HCV polymerase inhibition assay; type: biochemical
T1 construct: 100 nM 1b (BK) NS5BΔ21
Protocol: HCV polymerase reactions were carried out using a modified method of Howe et al., Antimicrobial Agents and Chemotherapy 2004 48(12): 4813-4821. Reactions contained a final concentration of, 0.5% DMSO, 100 nM 1b (BK) NS5BΔ21, 20 mM Tris-HCl pH 7.5, 5 mM MgCl2, 5 mM MnCl2, 3 mM DTT, 0.05% BSA, 0.2 U/μL RNasin, 10 μg/mL Poly(rC) template, GTP (at Km) and 0.05 μCi/μL ^33P-GTP in a total reaction volume of 50 μL. Compounds were tested in a three fold dilution series, for example starting from 50 μM. Reactions were initiated with the addition of GTP and terminated after […] with 50 μL ice cold 0.2 M EDTA. Terminated reactions were transferred to DEAE 96-well filter plates, unincorporated nucleotides washed from the filters and 50 μL scintillation fluid added prior to reading on a scintillation counter. The compound concentration that reduced ^33P-GTP incorporation by 50% (IC50) was calculated using non-linear regression.

[2] = tested on: genotype 1b (Con 1) subgenomic replicon cell line; assay: HCV replicon assay, genotype 1b, Renilla luciferase reporter; type: cell-based; conditions: Hepatitis C virus; 72 hours incubation, Renilla luciferase activity
Protocol: A genotype 1b (Con 1) subgenomic replicon cell line based on Blight et al., Science 2000 290: 1972-1974, modified to express a Renilla luciferase reporter gene was used to assess antiviral activity of test compounds. Cell cultures were maintained in a sub-confluent state in DMEM with glutamine, 10% heat-inactivated foetal bovine serum (FBS) and G418 (Geneticin®).
For assay, cells were seeded at a density of 7000 cells/well into 96 well tissue culture trays in culture media lacking G418. Compounds were tested in a three fold dilution series, for example starting from 50 uM. After 72 hours incubation at 37° C. and 5% CO2, Renilla luciferase activity was quantified via the Promega Renilla Luciferase or Renilla-Glo™ Luciferase Assay Systems (Promega corporation. The same method was employed for replicon assays using subgenomic genotype 1a (H77) and 2a (JFH-1) replicon cell lines with a seeding cell density of 5000 cells/well for the 2a cell lines.
The compound concentration that reduced luciferase activity by 50% (EC50) was calculated using non-linear regression.

[3] = Aqueous solubility (laser nephelometry); type: physicochemical; conditions: for solubility at 30 min: aqueous assay buffer pH 6.5 with 1% DMSO, aqueous buffer, kinetic from dmso stock, pH 6.5, 1% DMSO, 30 minute incubation at 25° C.
Protocol: Test compounds prepared in DMSO were screened in duplicate over a range of concentrations (1.6-100 ug/mL) in different aqueous media (for example a pH6.5 buffers which are relevant to the stomach and upper regions of the small intestine and therefore important when predicting the amount of drug likely to be in solution following oral administration). Test compounds were serially diluted in 100% DMSO ranging from 10-0.16 mg/mL. These titrated DMSO stocks were then further diluted 1:100 with assay buffer and added to test plates (UV Star Griener 384 well plates), maintaining the DMSO concentration at 1%.

[4] = read-out: solubility ranges at pH 6.5

T1 sequence (P26663 2420-2989, stated change not applied): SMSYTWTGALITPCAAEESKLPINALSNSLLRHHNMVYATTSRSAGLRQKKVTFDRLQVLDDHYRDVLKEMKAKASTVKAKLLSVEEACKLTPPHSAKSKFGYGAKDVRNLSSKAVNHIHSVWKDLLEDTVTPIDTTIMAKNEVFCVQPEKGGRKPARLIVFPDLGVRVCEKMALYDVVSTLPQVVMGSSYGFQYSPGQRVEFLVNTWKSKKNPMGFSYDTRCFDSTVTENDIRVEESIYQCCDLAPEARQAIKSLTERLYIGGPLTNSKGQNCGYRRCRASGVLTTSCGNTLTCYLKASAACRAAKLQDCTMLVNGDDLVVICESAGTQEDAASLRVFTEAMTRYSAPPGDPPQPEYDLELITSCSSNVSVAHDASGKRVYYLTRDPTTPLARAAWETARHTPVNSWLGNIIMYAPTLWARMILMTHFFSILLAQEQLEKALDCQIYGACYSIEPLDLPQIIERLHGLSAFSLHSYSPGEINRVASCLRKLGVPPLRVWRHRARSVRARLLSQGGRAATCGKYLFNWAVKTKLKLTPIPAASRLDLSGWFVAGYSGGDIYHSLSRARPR

Compound	IC50 [1] [nM]	EC50 [2] [nM]	solubility at 30 min [3, 4] [µg/mL]	solubility at 30 min ([3]; read-out: Solubility at pH 6.5) [µg/mL]	solubility at pH 6.5 (in words) ([3]; pH 6.5, good solubility when the value is >25 ug/mL)
CNC(=O)c1c2cc(C3CC3)c(N(CC[C@@H]3CO[C@H]3C)S(C)(=O)=O)cc2nn1-c1ccc(Cl)cc1 (single isomer, unassigned) [Compound 32]	100 to 490	< 100	25 to 50 (≈ 48.4 to 96.7 µM)		
CNC(=O)c1c2cc(C3CC3)c(N(CC[C@H]3CO[C@@H]3C)S(C)(=O)=O)cc2nn1-c1ccc(Cl)cc1 (single isomer, unassigned) [Compound 33]	100 to 490	< 100	50 to 100 (≈ 96.7 to 193 µM)		
CNC(=O)c1c2cc(C3CC3)c(N(CCC3COC3)S(C)(=O)=O)cc2nn1-c1ccc(C)cc1 [Compound 3, 5-Cyclopropyl-N-methyl-2-(4-methylphenyl)-6-{(methylsulfonyl)[2-(oxetan-3-yl)ethyl]amino}-2H-indazole-3-carboxamide]	< 100	< 100	12.5 to 25 (≈ 25.9 to 51.8 µM)		
CNC(=O)c1c2cc(C3CC3)c(N(CCC3CN(C(C)=O)C3)S(C)(=O)=O)cc2nn1-c1ccc(Cl)cc1 [Compound 8, 6-{[2-(1-acetylazetidin-3-yl)ethyl](methylsulfonyl)amino}-2-(4-chlorophenyl)-5-cyclopropyl-N-methyl-2H-indazole-3-carboxamide]	100 to 490	< 100	25 to 50 (≈ 45.9 to 91.9 µM)		
CNC(=O)c1c2cc(C3CC3)c(N(CC3COC3)S(C)(=O)=O)cc2nn1-c1ccc(Cl)cc1 [Compound 14, 2-(4-chlorophenyl)-5-cyclopropyl-N-methyl-6-[(methylsulfonyl)(oxetan-3-ylmethyl)amino]-2H-indazole-3-carboxamide]	100 to 490	< 100		25 to 50 (≈ 51.1 to 102 µM)	good solubility
CNC(=O)c1c2cc(C3CC3)c(N(CCC3OCC3C)S(C)(=O)=O)cc2nn1-c1ccc(Cl)cc1 (stereo not drawn) [Compound 17, 3,5-anhydro-1-{[2-(4-chlorophenyl)-5-cyclopropyl-3-(methylcarbamoyl)-2H-indazol-6-yl](methylsulfonyl)amino}-1,2,4-trideoxy-4-methylpentitol]	100 to 490	100 to 490	50 to 100 (≈ 96.7 to 193 µM)		
CNC(=O)c1c2cc(C3CC3)c(N(CC(F)C3COC3)S(C)(=O)=O)cc2nn1-c1ccc(Cl)cc1 (stereo not drawn) [Compound 18, 2-(4-chlorophenyl)-5-cyclopropyl-6-{[2-fluoro-2-(oxetan-3-yl)ethyl](methylsulfonyl)amino}-N-methyl-2H-indazole-3-carboxamide]	< 100	100 to 490	50 to 100 (≈ 96 to 192 µM)		
CNC(=O)c1c2cc(C3CC3)c(N(CCC3(F)COC3)S(C)(=O)=O)cc2nn1-c1ccc(Cl)cc1 [Compound 26, 2-(4-chlorophenyl)-5-cyclopropyl-6-[2-(3-fluorooxetan-3-yl)ethyl-methylsulfonyl-amino]-N-methyl-indazole-3-carboxamide]	< 100	< 100	25 to 50 (≈ 48 to 96 µM)		
CNC(=O)c1c2cc(C3CC3)c(N(CCC3(OC)CNC3)S(C)(=O)=O)cc2nn1-c1ccc(Cl)cc1 [Compound 29, 2-(4-chlorophenyl)-5-cyclopropyl-6-[2-(3-methoxyazetidin-3-yl)ethyl-methylsulfonyl-amino]-N-methyl-indazole-3-carboxamide]	1000 to 10000	1000 to 10000	12.5 to 25 (≈ 23.5 to 47 µM)		
CNC(=O)c1c2cc(C3CC3)c(N(CCC3(OC)CN(C(C)=O)C3)S(C)(=O)=O)cc2nn1-c1ccc(Cl)cc1 [Compound 30, 6-[2-(1-acetyl-3-methoxy-azetidin-3-yl)ethyl-methylsulfonyl-amino]-2-(4-chlorophenyl)-5-cyclopropyl-N-methyl-indazole-3-carboxamide]	500 to 990	500 to 990	50 to 100 (≈ 87.1 to 174 µM)		
CNC(=O)c1c2cc(C3CC3)c(N(CCC3(OC)COC3)S(C)(=O)=O)cc2nn1-c1ccc(Cl)cc1 [Compound 36, 2-(4-chlorophenyl)-5-cyclopropyl-6-[2-(3-methoxyoxetan-3-yl)ethyl-methylsulfonyl-amino]-N-methyl-indazole-3-carboxamide]		100 to 490	50 to 100 (≈ 93.8 to 188 µM)		
